From ChEMBL document CHEMBL1614632, “Trend analysis of a database of intravenous pharmacokinetic parameters in humans for 670 drug compounds” (Drug Metab Dispos, 2008)

What was measured:
clinical [1] = settings: human, in vivo, iv, Vdss
clinical [2] = settings: human, in vivo, iv, CL
clinical [3] = settings: human, in vivo, iv
clinical [4] = settings: human, in vivo, iv, t1/2

SMILES | Vd (clinical [1]) [L/kg] | clearance (clinical [2]) [mL/min/kg] | MRT (clinical [3]) [h] | half-life (clinical [4]) [h]
CO[C@H]1C[C@@H]2CC[C@@H](C)[C@@](O)(O2)C(=O)C(=O)N2CCCC[C@H]2C(=O)O[C@H]([C@H](C)C[C@@H]2CC[C@H](n3cnnn3)[C@H](OC)C2)CC(=O)[C@H](C)/C=C(\C)[C@@H](O)[C@@H](OC)C(=O)[C@H](C)C[C@H](C)/C=C/C=C/C=C/1C [ZOTAROLIMUS] | 1.3 | 0.67 | 33 | 35
CC(C)(C)NCC(O)c1cc(O)cc(O)c1 (stereo not drawn) [TERBUTALINE] | 1.5 | 3.4 | 7.4 | 15
CC(C(=O)O)c1ccc(C(=O)c2cccs2)cc1 (stereo not drawn) [SUPROFEN] | 0.04 | 0.76 | 0.88 | 2.1
CO[C@H]1/C=C/O[C@@]2(C)Oc3c(C)c(O)c4c(c3C2=O)C2=NC3(CCN(CC(C)C)CC3)NC2=C(NC(=O)/C(C)=C\C=C\[C@H](C)[C@H](O)[C@@H](C)[C@@H](O)[C@@H](C)[C@H](OC(C)=O)[C@@H]1C)C4=O [RIFABUTIN] | 9.3 | 2.4 | 65 | 37
CCCC[C@@H]1CC(=O)[C@]2(O)O[C@@H]3[C@@H](NC)[C@@H](O)[C@@H](NC)[C@H](O)[C@H]3O[C@@H]2O1 [TROSPECTOMYCIN] | 0.7 | 1.7 | 6.9 | 11
CC(C)(C)[C@H](NC(=O)[C@H](CC1CCCC1)CN(O)C=O)C(=O)N1CCN(Cc2ccc3c(c2)OCO3)CC1 | 1.1 | 3.1 | 5.9 | 9.4
O=C1NCC2(CCN(CCc3ccccc3)CC2)O1 [FENSPIRIDE] | 3 | 2.6 | 19 | 14
COc1ccccc1N1CCN(CCCNc2cc(=O)n(C)c(=O)n2C)CC1 | 0.75 | 3.1 | 4 | 3.5
OC(CCN1CCCC1)(c1ccccc1)C1CCCCC1 (stereo not drawn) [PROCYCLIDINE] | 0.74 | 0.86 | 14 | 12
CN1C(=O)C(O)N=C(c2ccccc2Cl)c2cc(Cl)ccc21 (stereo not drawn) [LORMETAZEPAM] | 1.6 | 4 | 6.7 | 4.9
CC1COc2c(N3CCN(C)CC3)c(F)cc3c(=O)c(C(=O)O)cn1c23 (stereo not drawn) [OFLOXACIN] | 1.6 | 2.5 | 11 | 8.9
C[N+](C)([O-])CCCN1c2ccccc2CCc2ccccc21 [IMIPRAMINOXIDE] | 1.9 | 12 | 2.6 | 1.8
S=P(N1CC1)(N1CC1)N1CC1 [THIOTEPA] | 1.6 | 6.7 | 4 | 2.7
NC[C@H]1O[C@H](O[C@H]2[C@H](O)[C@@H](O[C@H]3O[C@H](CO)[C@@H](O)[C@H](N)[C@H]3O)[C@H](N)C[C@@H]2N)[C@H](O)[C@@H](O)[C@@H]1O [KANAMYCIN] | 0.26 | 1.4 | 3.1 | 2.1
COc1cc2c(cc1OC)CN(c1cc(N)c3cc(OC)c(OC)cc3n1)CC2 [ABANOQUIL] | 6.3 | 14 | 7.6 | 5.9
O=C(NCCN1CCOCC1)c1ccc(Cl)cc1 [MOCLOBEMIDE] | 1.1 | 10 | 1.8 | 1.5
CN(C)CCc1c[nH]c2ccc(C[C@H]3COC(=O)N3)cc12 [ZOLMITRIPTAN] | 1.8 | 6.7 | 4.6 | 3.6
CN1C(=O)CC[C@H]1c1cccnc1 [COTININE] | 1.1 | 0.89 | 21 | 17
C=CCN1CCCC1CNC(=O)c1cc2[nH]nnc2cc1OC (stereo not drawn) [ALIZAPRIDE] | 1.6 | 6.6 | 4 | 2.8
N#Cc1ccc2c(c1)CN(S(=O)(=O)c1cccs1)[C@H](Cc1ccccc1)CN2Cc1cnc[nH]1 [BMS-214662] | 0.84 | 9.6 | 1.4 | 1.6
Cc1cc(NC(=O)C2=C(O)c3ccccc3S(=O)(=O)N2C)no1 [ISOXICAM] | 0.19 | 0.07 | 44 | 33
CC1(C)S[C@@H]2[C@H](NC(=O)C(C(=O)O)c3ccccc3)C(=O)N2[C@H]1C(=O)O (stereo partly drawn) [CARBENICILLIN] | 0.17 | 1.9 | 1.5 | 1.1
Nc1nc2c(ncn2CCC(CO)CO)c(=O)[nH]1 [PENCICLOVIR] | 1.1 | 8.4 | 2.4 | 2.1
O=C(O)C1N=C(c2ccccc2)c2cc(Cl)ccc2NC1=O (stereo not drawn) [CLORAZEPIC ACID] | 0.2 | 1.1 | 3 | 2.4

SMILES | Vd (clinical [1]) [L/kg] | clearance (clinical [2]) [mL/min/kg] | MRT (clinical [3]) [h] | half-life (clinical [4]) [h]
C=CC[N+]12CC[C@@]34c5ccccc5N5/C=C6/[C@H]7C[C@H]8[C@@]9(CC[N@@+]8(CC=C)C/C7=C/CO)c7ccccc7N(/C=C(/[C@@H](C[C@@H]31)/C(=C\CO)C2)[C@H]54)[C@@H]69 (stereo partly drawn) | 0.32 | 1.3 | 4.1 | 3.6
CC1(C)S[C@@H]2[C@H](NC(=O)[C@H](N)c3ccccc3)C(=O)N2[C@H]1C(=O)O [AMPICILLIN] | 0.22 | 2.8 | 1.3 | 1.4
O=C(O)Cn1c(=O)c(=O)[nH]c2cc([N+](=O)[O-])c(-n3ccnc3)cc21 [ZONAMPANEL] | 0.19 | 5.3 | 0.6 | 0.78
C[C@@](O)(/C=C/[C@H]1CC=CC(=O)O1)[C@@H](C[C@@H](O)\C=C/C=C\C=C\CO)OP(=O)(O)O [FOSTRIECIN] | 0.086 | 1.2 | 1.2 | 1.5
NC[C@H]1O[C@H](O[C@H]2[C@H](O[C@@H]3O[C@H](CO)[C@@H](O)[C@H]3O)[C@@H](O)[C@H](N)C[C@@H]2N)[C@H](N)[C@@H](O)[C@@H]1O [RIBOSTAMYCIN] | 0.25 | 1.5 | 2.8 | 2.5
COc1cc2c(cc1O)CCN[C@]21CS[C@@H]2c3c(OC(C)=O)c(C)c4c(c3[C@H](COC1=O)N1[C@@H]2[C@H]2c3c(cc(C)c(OC)c3O)C[C@@H]([C@@H]1O)N2C)OCO4 [TRABECTEDIN] | 25 | 12 | 35 | 44
Nc1nc2c(c(=O)[nH]1)N(C=O)C(CNc1ccc(C(=O)N[C@@H](CCC(=O)O)C(=O)O)cc1)CN2 (stereo partly drawn) [LEUCOVORIN] | 0.25 | 5.8 | 0.8 | 1.3
Cc1ccccc1N1C(=O)c2cc(S(N)(=O)=O)c(Cl)cc2NC1C (stereo not drawn) [METOLAZONE] | 1.6 | 1.4 | 19 | 20
Cc1cccc(C)c1NC(=O)C(C)N (stereo not drawn) [TOCAINIDE] | 1.8 | 2.2 | 14 | 12
Cc1nnc2n1-c1ccc(Cl)cc1C(c1ccccc1)=NC2 [ALPRAZOLAM] | 0.8 | 0.74 | 18 | 12
O=C(O)CCCc1ccc(N(CCCl)CCCl)cc1 [CHLORAMBUCIL] | 0.26 | 2.8 | 1.5 | 1.1
CCC1(c2ccccc2)C(=O)NC(=O)NC1=O [PHENOBARBITAL] | 0.54 | 0.063 | 140 | 99
CN(C)CCC=C1c2ccccc2COc2ccccc21 [DOXEPIN] | 12 | 14 | 15 | 15
Nc1ccn([C@@H]2CO[C@H](CO)O2)c(=O)n1 [TROXACITABINE] | 1 | 2.4 | 6.9 | 82
C/C(=C\c1csc(C)n1)[C@@H]1C[C@@H]2O[C@]2(C)CCC[C@H](C)[C@H](O)[C@@H](C)C(=O)C(C)(C)[C@@H](O)CC(=O)N1 [IXABEPILONE] | 11 | 10 | 18 | 17
C[C@H]1O[C@H](O[C@H]2[C@H](O)[C@@H](O)[C@@H](O[C@H]3[C@H](O)[C@@H](O)C(O)O[C@@H]3CO)O[C@@H]2CO)[C@H](O)[C@@H](O)[C@@H]1N[C@H]1C=C(CO)[C@@H](O)[C@H](O)[C@H]1O (stereo partly drawn) [ACARBOSE] | 0.32 | 2.2 | 2.4 | 2.7
c1ccc(C2(N3CCCCC3)CCCCC2)cc1 [PHENCYCLIDINE] | 6.9 | 5.1 | 23 | 16
C[C@@H]1CN(c2c(F)c(N)c3c(=O)c(C(=O)O)cn(C4CC4)c3c2F)C[C@H](C)N1 [SPARFLOXACIN] | 3.9 | 2.7 | 24 | 20
CC(C)(C)NC[C@H](O)COc1nsnc1N1CCOCC1 [TIMOLOL] | 1.5 | 8.5 | 3 | 2.2
CO[C@H]1C[C@@H]2CC[C@@H](C)[C@@](O)(O2)C(=O)C(=O)N2CCCC[C@H]2C(=O)O[C@H]([C@H](C)C[C@@H]2CC[C@@H](OC(=O)C(C)(CO)CO)[C@H](OC)C2)CC(=O)[C@H](C)/C=C(\C)[C@@H](O)[C@@H](OC)C(=O)[C@H](C)C[C@H](C)/C=C/C=C/C=C/1C [TEMSIROLIMUS] | 3 | 7.7 | 10 | 18
Cc1[nH]c(=O)c(C#N)cc1-c1ccncc1 [MILRINONE] | 0.25 | 6.2 | 0.67 | 0.8
CCOc1ccccc1OCC1CNCCO1 (stereo not drawn) [VILOXAZINE] | 0.73 | 2.1 | 5.8 | 4.1
N[C@@H]1CN(c2c(F)cc3c(=O)c(C(=O)O)cn([C@@H]4C[C@@H]4F)c3c2Cl)CC12CC2 [SITAFLOXACIN ANHYDROUS] | 1.5 | 3.7 | 6.7 | 6.6
